Key:
[1] = molecular target: T1, G protein-coupled receptor kinase 3 (Homo sapiens) (UniProt P35626); assay: Inhibition of GRK3 (unknown origin) at 10 uM after 120 mins P33 radiolabeled kinase activity assay
T1 sequence (whole entry): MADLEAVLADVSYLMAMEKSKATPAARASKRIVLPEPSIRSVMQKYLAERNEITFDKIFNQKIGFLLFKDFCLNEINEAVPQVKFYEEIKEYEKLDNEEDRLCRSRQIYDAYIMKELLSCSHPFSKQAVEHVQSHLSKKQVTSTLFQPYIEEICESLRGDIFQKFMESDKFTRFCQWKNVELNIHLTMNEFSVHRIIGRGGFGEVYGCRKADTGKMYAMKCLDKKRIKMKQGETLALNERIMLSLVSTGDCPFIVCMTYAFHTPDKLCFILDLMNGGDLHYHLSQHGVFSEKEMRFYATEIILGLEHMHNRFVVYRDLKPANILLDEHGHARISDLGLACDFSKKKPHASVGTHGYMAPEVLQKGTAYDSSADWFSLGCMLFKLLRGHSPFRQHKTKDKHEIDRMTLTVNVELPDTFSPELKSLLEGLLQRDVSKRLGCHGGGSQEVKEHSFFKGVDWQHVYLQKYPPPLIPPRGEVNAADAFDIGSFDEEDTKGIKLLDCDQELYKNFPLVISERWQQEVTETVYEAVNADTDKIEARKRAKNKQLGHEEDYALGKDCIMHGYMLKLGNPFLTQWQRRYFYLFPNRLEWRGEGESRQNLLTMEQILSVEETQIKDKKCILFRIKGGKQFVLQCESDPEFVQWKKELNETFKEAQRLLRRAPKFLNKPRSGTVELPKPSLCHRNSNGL

[2] = molecular target: Cyclin-dependent kinase 4/cyclin D1 (Homo sapiens) (UniProt P11802+P24385); assay: Inhibition of CDK4/cyclin D1 (unknown origin) at 10 uM after 120 mins P33 radiolabeled kinase activity assay; type: protein-complex assay
[3] = molecular target: Receptor-interacting serine/threonine-protein kinase 2 (Homo sapiens, UniProt O43353); assay: Inhibition of full-length FLAG-6His-TEV tagged human RIP2 expressed in Sf9 cells assessed as reduction in autophosphorylation pre-incubated for 30 mins followed by incubation with ATP for 2 hrs by ADP-Glo assay
Sequence of Receptor-interacting serine/threonine-protein kinase 2 (O43353 whole entry): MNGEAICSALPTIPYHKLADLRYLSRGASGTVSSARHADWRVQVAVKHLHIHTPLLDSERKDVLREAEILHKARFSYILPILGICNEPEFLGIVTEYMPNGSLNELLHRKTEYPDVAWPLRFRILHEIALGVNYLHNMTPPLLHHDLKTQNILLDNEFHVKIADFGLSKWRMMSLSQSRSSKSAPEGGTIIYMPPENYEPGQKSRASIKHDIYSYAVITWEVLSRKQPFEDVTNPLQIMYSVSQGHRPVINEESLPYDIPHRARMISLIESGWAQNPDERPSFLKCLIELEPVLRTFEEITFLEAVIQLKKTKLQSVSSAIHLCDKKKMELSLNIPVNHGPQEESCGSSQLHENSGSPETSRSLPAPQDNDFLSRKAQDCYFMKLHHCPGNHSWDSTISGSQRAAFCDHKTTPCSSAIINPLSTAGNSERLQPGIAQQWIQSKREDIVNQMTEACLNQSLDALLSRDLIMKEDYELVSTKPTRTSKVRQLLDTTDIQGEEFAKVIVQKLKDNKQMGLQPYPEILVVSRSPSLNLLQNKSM

[4] = molecular target: T2, Tyrosine-protein kinase TXK (Homo sapiens) (UniProt P42681); assay: Inhibition of TXK (unknown origin) at 10 uM after 120 mins P33 radiolabeled kinase activity assay
T2 sequence (whole entry): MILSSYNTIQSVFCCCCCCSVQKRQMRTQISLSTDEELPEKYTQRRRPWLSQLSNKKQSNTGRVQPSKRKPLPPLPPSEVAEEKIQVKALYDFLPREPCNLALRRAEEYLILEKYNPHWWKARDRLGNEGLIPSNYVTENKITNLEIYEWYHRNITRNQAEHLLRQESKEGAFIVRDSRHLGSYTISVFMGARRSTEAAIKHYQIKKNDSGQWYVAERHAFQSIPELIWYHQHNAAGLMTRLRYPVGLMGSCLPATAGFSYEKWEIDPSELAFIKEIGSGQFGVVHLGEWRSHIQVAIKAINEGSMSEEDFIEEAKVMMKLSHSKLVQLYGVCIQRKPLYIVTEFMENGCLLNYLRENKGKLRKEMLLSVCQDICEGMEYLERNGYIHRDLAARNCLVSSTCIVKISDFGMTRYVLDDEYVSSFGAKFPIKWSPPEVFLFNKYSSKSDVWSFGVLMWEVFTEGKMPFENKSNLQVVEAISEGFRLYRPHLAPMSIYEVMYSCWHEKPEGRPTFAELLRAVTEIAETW

[5] = molecular target: T3, Testis-specific serine/threonine-protein kinase 2 (Homo sapiens) (UniProt Q96PF2); assay: Inhibition of TSSK2 (unknown origin) at 10 uM after 120 mins P33 radiolabeled kinase activity assay
T3 sequence (whole entry): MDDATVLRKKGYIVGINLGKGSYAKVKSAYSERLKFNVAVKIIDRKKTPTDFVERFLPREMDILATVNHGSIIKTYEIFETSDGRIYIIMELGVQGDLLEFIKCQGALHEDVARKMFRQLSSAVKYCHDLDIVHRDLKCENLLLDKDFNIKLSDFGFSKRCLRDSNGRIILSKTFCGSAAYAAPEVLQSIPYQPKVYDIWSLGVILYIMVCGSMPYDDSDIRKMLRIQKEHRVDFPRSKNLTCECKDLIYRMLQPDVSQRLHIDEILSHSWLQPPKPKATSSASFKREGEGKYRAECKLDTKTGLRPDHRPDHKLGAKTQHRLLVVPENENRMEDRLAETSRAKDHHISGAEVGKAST

[6] = molecular target: Serine/threonine-protein kinase PAK 6 (Homo sapiens) (UniProt Q9NQU5); assay: Inhibition of PAK6 (unknown origin) at 10 uM after 120 mins P33 radiolabeled kinase activity assay
Sequence of Serine/threonine-protein kinase PAK 6 (Homo sapiens) (Q9NQU5 whole entry, looked up): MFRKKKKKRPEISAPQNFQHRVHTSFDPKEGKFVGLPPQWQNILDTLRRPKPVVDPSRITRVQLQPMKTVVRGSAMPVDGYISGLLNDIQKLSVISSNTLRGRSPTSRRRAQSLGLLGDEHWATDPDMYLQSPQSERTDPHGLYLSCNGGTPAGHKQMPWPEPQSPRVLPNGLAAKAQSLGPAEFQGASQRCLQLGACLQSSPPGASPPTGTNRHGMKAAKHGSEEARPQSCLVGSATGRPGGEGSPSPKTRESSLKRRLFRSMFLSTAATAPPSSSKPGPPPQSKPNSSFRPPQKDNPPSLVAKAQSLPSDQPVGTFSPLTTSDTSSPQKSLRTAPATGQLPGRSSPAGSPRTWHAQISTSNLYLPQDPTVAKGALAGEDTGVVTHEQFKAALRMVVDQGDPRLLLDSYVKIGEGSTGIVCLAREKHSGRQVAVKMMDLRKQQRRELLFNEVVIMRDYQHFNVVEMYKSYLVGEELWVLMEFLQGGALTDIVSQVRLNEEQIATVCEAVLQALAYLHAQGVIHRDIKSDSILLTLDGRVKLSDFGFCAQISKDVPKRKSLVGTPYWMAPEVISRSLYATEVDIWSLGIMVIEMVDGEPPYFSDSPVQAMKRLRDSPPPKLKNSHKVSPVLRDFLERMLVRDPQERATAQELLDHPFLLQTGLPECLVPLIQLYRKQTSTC

[7] = molecular target: CDK1/Cyclin E (Homo sapiens) (UniProt P06493+P24864); assay: Inhibition of CDK1/cyclin E (unknown origin) at 10 uM after 120 mins P33 radiolabeled kinase activity assay; type: protein-complex assay
Sequence of CDK1/Cyclin E (Homo sapiens) (P06493 whole entry, looked up): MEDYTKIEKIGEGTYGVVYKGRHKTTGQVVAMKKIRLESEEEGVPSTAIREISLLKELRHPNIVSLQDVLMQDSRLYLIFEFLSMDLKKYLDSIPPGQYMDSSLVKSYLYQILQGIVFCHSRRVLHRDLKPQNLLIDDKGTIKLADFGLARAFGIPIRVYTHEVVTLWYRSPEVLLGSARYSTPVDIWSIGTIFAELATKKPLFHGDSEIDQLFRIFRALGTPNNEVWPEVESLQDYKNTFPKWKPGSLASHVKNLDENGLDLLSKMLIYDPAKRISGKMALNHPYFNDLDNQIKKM
Sequence of CDK1/Cyclin E (Homo sapiens) (P24864 whole entry, looked up): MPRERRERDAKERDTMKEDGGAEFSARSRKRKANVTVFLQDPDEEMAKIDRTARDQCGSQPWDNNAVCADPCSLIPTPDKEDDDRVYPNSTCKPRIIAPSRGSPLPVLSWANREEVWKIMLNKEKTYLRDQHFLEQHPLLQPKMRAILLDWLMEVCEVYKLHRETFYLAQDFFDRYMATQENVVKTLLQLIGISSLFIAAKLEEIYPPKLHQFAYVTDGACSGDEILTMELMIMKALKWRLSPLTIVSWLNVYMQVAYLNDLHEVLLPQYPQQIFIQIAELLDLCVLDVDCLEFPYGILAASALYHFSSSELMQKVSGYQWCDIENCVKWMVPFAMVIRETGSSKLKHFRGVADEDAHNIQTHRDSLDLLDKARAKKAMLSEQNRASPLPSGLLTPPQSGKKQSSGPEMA

[8] = molecular target: Mitogen-activated protein kinase kinase kinase 1 (Homo sapiens) (UniProt Q13233); assay: Inhibition of MEKK1 (unknown origin) at 10 uM after 120 mins P33 radiolabeled kinase activity assay
Sequence of Mitogen-activated protein kinase kinase kinase 1 (Homo sapiens) (Q13233 whole entry): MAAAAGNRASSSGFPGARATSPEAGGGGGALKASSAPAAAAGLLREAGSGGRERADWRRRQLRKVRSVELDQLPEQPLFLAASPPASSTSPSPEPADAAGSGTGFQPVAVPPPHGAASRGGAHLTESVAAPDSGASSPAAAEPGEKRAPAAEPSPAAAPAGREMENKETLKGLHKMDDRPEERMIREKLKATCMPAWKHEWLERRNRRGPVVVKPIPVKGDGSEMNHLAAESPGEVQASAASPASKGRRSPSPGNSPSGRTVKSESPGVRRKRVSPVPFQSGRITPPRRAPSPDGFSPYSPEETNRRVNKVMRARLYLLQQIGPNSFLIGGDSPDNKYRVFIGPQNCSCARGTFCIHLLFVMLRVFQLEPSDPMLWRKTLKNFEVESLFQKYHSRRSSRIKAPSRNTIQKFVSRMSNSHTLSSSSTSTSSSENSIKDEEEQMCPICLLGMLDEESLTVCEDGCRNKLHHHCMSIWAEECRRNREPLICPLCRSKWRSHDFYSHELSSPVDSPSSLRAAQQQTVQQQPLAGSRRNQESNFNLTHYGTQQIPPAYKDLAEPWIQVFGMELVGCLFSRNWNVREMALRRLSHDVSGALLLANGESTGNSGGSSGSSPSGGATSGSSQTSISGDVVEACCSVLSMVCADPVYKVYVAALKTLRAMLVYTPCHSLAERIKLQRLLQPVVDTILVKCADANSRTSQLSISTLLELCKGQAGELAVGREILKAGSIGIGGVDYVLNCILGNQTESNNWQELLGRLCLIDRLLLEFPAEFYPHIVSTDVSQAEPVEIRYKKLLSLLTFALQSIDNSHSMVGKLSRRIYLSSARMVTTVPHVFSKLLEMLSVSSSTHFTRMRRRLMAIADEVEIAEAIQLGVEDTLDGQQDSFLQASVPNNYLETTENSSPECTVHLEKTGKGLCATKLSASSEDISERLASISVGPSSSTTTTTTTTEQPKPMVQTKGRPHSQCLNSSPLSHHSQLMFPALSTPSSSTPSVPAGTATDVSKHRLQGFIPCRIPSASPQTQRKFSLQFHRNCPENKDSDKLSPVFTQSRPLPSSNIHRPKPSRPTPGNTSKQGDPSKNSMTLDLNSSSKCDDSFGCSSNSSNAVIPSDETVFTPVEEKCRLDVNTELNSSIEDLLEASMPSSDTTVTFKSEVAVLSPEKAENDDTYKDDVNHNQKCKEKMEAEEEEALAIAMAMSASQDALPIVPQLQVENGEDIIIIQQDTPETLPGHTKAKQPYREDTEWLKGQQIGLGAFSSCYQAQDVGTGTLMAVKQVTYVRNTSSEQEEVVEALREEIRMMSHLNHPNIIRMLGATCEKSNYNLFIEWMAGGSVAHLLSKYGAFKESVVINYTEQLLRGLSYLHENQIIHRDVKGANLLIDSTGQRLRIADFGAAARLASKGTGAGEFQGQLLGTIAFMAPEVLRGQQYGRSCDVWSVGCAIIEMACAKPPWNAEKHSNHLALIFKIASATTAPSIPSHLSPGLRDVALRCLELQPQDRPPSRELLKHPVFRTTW

[9] = molecular target: Serine/threonine-protein kinase N3 (Homo sapiens) (UniProt Q6P5Z2); assay: Inhibition of PKN3 (unknown origin) at 10 uM after 120 mins P33 radiolabeled kinase activity assay
[10] = molecular target: Calcium/calmodulin-dependent protein kinase type II subunit delta (Homo sapiens) (UniProt Q13557); assay: Inhibition of CAMK2delta (unknown origin) at 10 uM after 120 mins P33 radiolabeled kinase activity assay
Sequence of Calcium/calmodulin-dependent protein kinase type II subunit delta (Homo sapiens) (Q13557 whole entry): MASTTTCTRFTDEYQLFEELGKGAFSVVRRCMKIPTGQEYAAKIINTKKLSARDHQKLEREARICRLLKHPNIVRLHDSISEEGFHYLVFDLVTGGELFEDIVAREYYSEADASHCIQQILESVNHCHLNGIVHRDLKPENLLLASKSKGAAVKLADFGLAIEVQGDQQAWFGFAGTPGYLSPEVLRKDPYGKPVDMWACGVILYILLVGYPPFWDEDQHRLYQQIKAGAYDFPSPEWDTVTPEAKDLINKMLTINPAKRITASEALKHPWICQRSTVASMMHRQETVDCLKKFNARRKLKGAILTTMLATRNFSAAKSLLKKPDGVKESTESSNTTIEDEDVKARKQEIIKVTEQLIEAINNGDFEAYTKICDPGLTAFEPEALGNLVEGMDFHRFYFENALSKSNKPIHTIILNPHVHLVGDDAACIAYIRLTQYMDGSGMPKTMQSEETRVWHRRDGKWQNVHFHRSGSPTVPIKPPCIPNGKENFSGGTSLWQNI

[11] = molecular target: cAMP-dependent protein kinase catalytic subunit gamma (Homo sapiens) (UniProt P22612); assay: Inhibition of PKAcgamma (unknown origin) at 10 uM after 120 mins P33 radiolabeled kinase activity assay
Sequence of cAMP-dependent protein kinase catalytic subunit gamma (Homo sapiens) (P22612 2-351 limits assumed): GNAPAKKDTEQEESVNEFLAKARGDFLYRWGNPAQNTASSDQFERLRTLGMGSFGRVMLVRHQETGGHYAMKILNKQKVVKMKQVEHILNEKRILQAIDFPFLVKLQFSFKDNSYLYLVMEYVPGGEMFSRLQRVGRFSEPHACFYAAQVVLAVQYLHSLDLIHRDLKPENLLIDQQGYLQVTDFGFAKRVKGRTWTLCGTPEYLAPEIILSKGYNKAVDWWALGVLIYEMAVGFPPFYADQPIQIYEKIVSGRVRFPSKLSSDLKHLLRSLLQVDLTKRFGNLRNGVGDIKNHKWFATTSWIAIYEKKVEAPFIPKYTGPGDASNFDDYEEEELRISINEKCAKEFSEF

[12] = molecular target: T4, Serine/threonine-protein kinase Nek3 (Homo sapiens) (UniProt P51956); assay: Inhibition of NEK3 (unknown origin) at 10 uM after 120 mins P33 radiolabeled kinase activity assay
T4 sequence (whole entry): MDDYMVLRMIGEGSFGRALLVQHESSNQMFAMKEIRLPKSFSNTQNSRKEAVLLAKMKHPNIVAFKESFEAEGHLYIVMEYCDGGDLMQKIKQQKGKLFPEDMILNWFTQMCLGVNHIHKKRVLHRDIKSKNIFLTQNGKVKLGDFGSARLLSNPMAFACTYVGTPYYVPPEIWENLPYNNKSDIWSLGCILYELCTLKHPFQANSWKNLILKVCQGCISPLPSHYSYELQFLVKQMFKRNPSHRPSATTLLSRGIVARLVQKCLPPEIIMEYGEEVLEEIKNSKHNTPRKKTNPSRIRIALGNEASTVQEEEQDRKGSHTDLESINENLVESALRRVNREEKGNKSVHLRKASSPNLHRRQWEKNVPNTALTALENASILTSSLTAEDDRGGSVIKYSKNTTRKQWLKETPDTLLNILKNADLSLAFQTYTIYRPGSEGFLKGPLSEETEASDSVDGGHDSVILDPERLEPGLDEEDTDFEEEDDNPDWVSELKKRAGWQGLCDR

inhibition [1] [%] | inhibition [2] [%] | IC50 [3] [nM] | inhibition [4] [%] | inhibition [5] [%] | inhibition [6] [%] | inhibition [7] [%] | inhibition [8] [%] | inhibition [9] [%] | inhibition [10] [%] | inhibition [11] [%] | inhibition [12] [%] | SMILES
-0.61 | -1.3 | 12 | 27.8 | 3.82 | 3.33 | -2.74 | -3.24 | 17.9 | -0.09 | 0.62 | 16.4 | COCCNC(=O)c1ccc2c(c1)nc(-c1cnc(-c3ccc(Cl)cc3)[nH]1)n2CCOC
-3.43 | 74.5 | 6.3 | 97.5 | 1.83 | 17.4 | 78.3 | -3 | 28.3 | 7.04 | 9.35 | 4.28 | CS(=O)(=O)c1cccc(Nc2nccc(-c3sc(N4CCOCC4)nc3-c3cccc(NS(=O)(=O)c4c(F)cccc4F)c3)n2)c1
-2.07 | 43 | 63 | 24.8 | 1.87 | 8.88 | 72.2 | 25.2 | 31.5 | 3.15 | 78.7 | 10.7 | CC(C)(C)c1cc(NC(=O)Nc2ccc(Oc3ccncc3)cc2)no1

From ChEMBL document CHEMBL3627608, “Crystal structures of human RIP2 kinase catalytic domain complexed with ATP-competitive inhibitors: Foundations for understanding inhibitor selectivity” (Bioorg Med Chem, 2015)
